Assay results reported in patent US20260256792A1, “TREATMENT OF CHRONIC SPONTANEOUS URTICARIA BY ADMINISTERING (R)-2-[3-[4-AMINO-3-(2-FLUORO-4-PHENOXY-PHENYL)PYRAZOLO[3,4-D]PYRIMIDIN-1-YL]PIPERIDINE-1-CARBONYL]-4-METHYL-4-[4-(OXETAN-3-YL)PIPERAZIN-1-YL]PENT-2-ENENITRILE” (priority 2023, published 2026).

Tested on: moderate-to-severe chronic spontaneous urticaria (CSU)
Test: Phase 2 CSU study: urticaria activity score over 7 days (UAS7)
Format: in vivo, human
Conditions: Omalizumab-naïve
Excerpt: The study comprises a 12 week, randomized, double-blind, placebo-controlled, multi-center, dose-ranging efficacy and safety phase, followed by a 40 week open label extension (OLE) phase (see FIG. 1). The study consists of three phases and an optional OLE phase. […] Clinically, CSU is characterized by the spontaneous and recurrent appearance of pruritic hives. The proposed primary endpoints were the UAS7 at Week 12 in EU and EU reference countries and the ISS7 in the US. Regardless of where a participant was from, all assessments were the same. The UAS7 score is a composite score containing both the HSS7 and the ISS7. This allowed a global assessment of the two key components of urticaria: hives and itch. […] The UAS is a validated PRO measure. […] The daily UAS scores range from 0 to 6 point/day. […] Patients were to complete the UAS using the e-diary. […] The following secondary endpoints were to be analyzed using the same approach as for the primary endpoint: • Change from baseline in UAS7 at Week 4 • Change from baseline in UAS7 at Week 12 (for US and US reference countries) • Change from baseline in ISS7 at Week 12 (except US and US reference countries) • Change from baseline in HSS7 at Week 12 The following responder secondary endpoints were to be analyzed using the Cochran-Mantel-Haenszel test adjusted by region: • Proportion of participants with UAS7<6 at Week 12 • Proportion of participants with UAS7=0 at Week 12 Participants who received selected prohibited medications and/or rescue medications were to be considered as non-responders for time points after the medication usage. For other participants, all available data including those collected during the off-treatment period were to be used to determine the responder/non-responder status. Missing data were to be considered as non-responders.

In the case of CC(C)(C=C(C#N)C(=O)N1CCC[C@@H](n2nc(-c3ccc(Oc4ccccc4)cc3F)c3c(N)ncnc32)C1)N1CCN(C2COC2)CC1 [rilzabrutinib, (R)-2-[3-[4-amino-3-(2-fluoro-4-phenoxy-phenyl)pyrazolo[3,4-d]pyrimidin-1-yl]piperidine-1-carbonyl]-4-methyl-4-[4-(oxetan-3-yl)piperazin-1-yl]pent-2-enenitrile], the “Imputed non-responder n (%), UAS7 ≤6” value (400 mg QPM, Week 8) is reported as 7 (18.9) n (%), the “Non-responder n (%), UAS7 = 0” value (400 mg QPM, Week 8) is reported as 36 (97.3) n (%) and the “Non-responder n (%), UAS7 ≤6” value (400 mg QPM, Week 8) is reported as 34 (91.9) n (%). The “OR for rilzabrutinib vs. placebo, UAS7 = 0” value (400 mg QPM, Week 8) was 0.477, the “RRD (%) for rilzabrutinib vs. placebo, UAS7 = 0” value (shortened to “RRD (%) … UAS7 = 0”) (400 mg QPM, Week 8) was −2.7 % and the “RRD (%) for rilzabrutinib vs. placebo, UAS7 ≤6” value (“RRD (%) … UAS7 ≤6” below) (400 mg QPM, Week 8) was −8.4%. The “Responder n (%), UAS7 = 0” value (400 mg QPM, Week 8) was 1 (2.7) n (%), the “Responder n (%), UAS7 ≤6” value (400 mg QPM, Week 8) was 3 (8.1) n (%) and the “Imputed non-responder n (%), UAS7 = 0” value (400 mg QPM, Week 9) was 6 (16.2) n (%). The “Imputed non-responder n (%), UAS7 ≤6” value (400 mg QPM, Week 9) was 6 (16.2) n (%), the “Non-responder n (%), UAS7 = 0” value (400 mg QPM, Week 9) was 36 (97.3) n (%) and the “Non-responder n (%), UAS7 ≤6” value (400 mg QPM, Week 9) was 34 (91.9) n (%). The “OR for rilzabrutinib vs. placebo, UAS7 = 0” value (400 mg QPM, Week 9) was 0.305, the “OR for rilzabrutinib vs. placebo, UAS7 ≤6” value (400 mg QPM, Week 9) was 0.715 and the “RRD (%) … UAS7 = 0” value (400 mg QPM, Week 9) was −5.6 %. The “RRD (%) … UAS7 ≤6” value (400 mg QPM, Week 9) was −3.0%, the “Responder n (%), UAS7 = 0” value (400 mg QPM, Week 9) was 1 (2.7) n (%) and the “Responder n (%), UAS7 ≤6” value (400 mg QPM, Week 9) was 3 (8.1) n (%). For the same compound, the “Imputed non-responder n (%), UAS7 = 0” value (400 mg QPM, Week 10) was 6 (16.2) n (%), the “Imputed non-responder n (%), UAS7 ≤6” value (400 mg QPM, Week 10) was 6 (16.2) n (%) and the “Non-responder n (%), UAS7 = 0” value (400 mg QPM, Week 10) was 36 (97.3) n (%). For the same compound, the “Non-responder n (%), UAS7 ≤6” value (400 mg QPM, Week 10) was 35 (94.6) n (%), the “OR for rilzabrutinib vs. placebo, UAS7 = 0” value (400 mg QPM, Week 10) was 0.219 and the “OR for rilzabrutinib vs. placebo, UAS7 ≤6” value (400 mg QPM, Week 10) was 0.357. The “RRD (%) … UAS7 = 0” value (400 mg QPM, Week 10) was −8.7 %, the “RRD (%) … UAS7 ≤6” value (400 mg QPM, Week 10) was −8.6% and the “Responder n (%), UAS7 = 0” value (400 mg QPM, Week 10) was 1 (2.7) n (%). For the same compound, the “Responder n (%), UAS7 ≤6” value (400 mg QPM, Week 10) was 2 (5.4) n (%), the “Imputed non-responder n (%), UAS7 = 0” value (400 mg QPM, Week 11) was 7 (18.9) n (%) and the “Imputed non-responder n (%), UAS7 ≤6” value (400 mg QPM, Week 11) was 7 (18.9) n (%). The “Non-responder n (%), UAS7 = 0” value (400 mg QPM, Week 11) was 35 (94.6) n (%), the “Non-responder n (%), UAS7 ≤6” value (400 mg QPM, Week 11) was 34 (91.9) n (%) and the “OR for rilzabrutinib vs. placebo, UAS7 = 0” value (400 mg QPM, Week 11) was 0.986. For the same compound, the “OR for rilzabrutinib vs. placebo, UAS7 ≤6” value (400 mg QPM, Week 11) was 0.456, the “RRD (%) … UAS7 ≤6” value (400 mg QPM, Week 11) was −8.5% and the “Responder n (%), UAS7 = 0” value (400 mg QPM, Week 11) was 2 (5.4) n (%). For the same compound, the “Responder n (%), UAS7 ≤6” value (400 mg QPM, Week 11) was 3 (8.1) n (%), the “Imputed non-responder n (%), UAS7 = 0” value (400 mg QPM, Week 12) was 10 (27.0) n (%) and the “Imputed non-responder n (%), UAS7 ≤6” value (400 mg QPM, Week 12) was 10 (27.0) n (%). For the same compound, the “Non-responder n (%), UAS7 = 0” value (400 mg QPM, Week 12) was 36 (97.3) n (%), the “Non-responder n (%), UAS7 ≤6” value (400 mg QPM, Week 12) was 35 (94.6) n (%) and the “OR for rilzabrutinib vs. placebo, UAS7 = 0” value (400 mg QPM, Week 12) was 0.219. For the same compound, the “OR for rilzabrutinib vs. placebo, UAS7 ≤6” value (400 mg QPM, Week 12) was 0.438, the “RRD (%) … UAS7 = 0” value (400 mg QPM, Week 12) was −8.7 % and the “RRD (%) … UAS7 ≤6” value (400 mg QPM, Week 12) was −6.1%. For the same compound, the “Responder n (%), UAS7 = 0” value (400 mg QPM, Week 12) was 1 (2.7) n (%), the “Responder n (%), UAS7 ≤6” value (400 mg QPM, Week 12) was 2 (5.4) n (%) and the “Imputed non-responder n (%), UAS7 = 0” value (400 mg TID, Week 1) was 0 n (%). The “Imputed non-responder n (%), UAS7 ≤6” value (400 mg TID, Week 1) was 0 n (%), the “Non-responder n (%), UAS7 = 0” value (400 mg TID, Week 1) was 34 (97.1) n (%) and the “Non-responder n (%), UAS7 ≤6” value (400 mg TID, Week 1) was 27 (77.1) n (%). For the same compound, the “OR for rilzabrutinib vs. placebo, UAS7 ≤6” value (400 mg TID, Week 1) was 4.809, the “RRD (%) … UAS7 = 0” value (400 mg TID, Week 1) was 0.2 % and the “RRD (%) … UAS7 ≤6” value (400 mg TID, Week 1) was 15.9 %. The “Responder n (%), UAS7 = 0” value (400 mg TID, Week 1) was 1 (2.9) n (%), the “Responder n (%), UAS7 ≤6” value (400 mg TID, Week 1) was 8 (22.9) n (%) and the “Imputed non-responder n (%), UAS7 = 0” value (400 mg TID, Week 2) was 0 n (%). For the same compound, the “Imputed non-responder n (%), UAS7 ≤6” value (400 mg TID, Week 2) was 0 n (%), the “Non-responder n (%), UAS7 = 0” value (400 mg TID, Week 2) was 31 (88.6) n (%) and the “Non-responder n (%), UAS7 ≤6” value (400 mg TID, Week 2) was 27 (77.1) n (%). The “OR for rilzabrutinib vs. placebo, UAS7 = 0” value (400 mg TID, Week 2) was 4.736, the “OR for rilzabrutinib vs. placebo, UAS7 ≤6” value (400 mg TID, Week 2) was 4.455 and the “RRD (%) … UAS7 = 0” value (400 mg TID, Week 2) was 8.3 %. For the same compound, the “RRD (%) … UAS7 ≤6” value (400 mg TID, Week 2) was 15.3 %, the “Responder n (%), UAS7 = 0” value (400 mg TID, Week 2) was 4 (11.4) n (%) and the “Responder n (%), UAS7 ≤6” value (400 mg TID, Week 2) was 8 (22.9) n (%).
